Source: patent publication US8748423B2, “Compositions and methods for the prevention and treatment of cancer” (Kinex Pharmaceuticals, LLC, priority 2010, dated 2014)
“And” between values parts separate entries of the source, which are not always exact repeats. Equal entries are not always repeated. “Also recorded” adds a separate entry of the source. Where two headings read alike, the source gives them in different places.

How the values were obtained:
GL261 glioma [1] = assay: re-challenge of long term survivor mice with s.c. GL261 cells; type: in vivo, C57BL/6 mice; settings: 1×10^6 s.c. GL261 cells; mice cured by Compound 76
Text: FIG. 5 is a graph of re-challenge of Compound 76 treated long term survivor mice from FIG. 4B with 1×10^6 s.c. GL261 glioa cells. Age and litter matched controls were implanted.

LN-18 = assay: brain tumor cell line growth inhibition, LN-18; type: cell-based; settings: Homo sapiens; LN-18, glioblastoma; glioma
Description: (§1) These GI50s were determined using standard tumor growth inhibition assays.

[2] = system: various brain tumor cell lines; assay: proliferation in various brain tumor cell lines; type: cell-based, human and mouse; settings: all brain tumor cell lines evaluated
Description: Compound 76 is a synthetic, orally bioavailable, novel small molecule microtubule polymerization inhibitor with very high CNS penetration. The efficacy of Compound 76 as a novel anti-cancer agent is tested directly using mouse model of malignant glioma. Compound 76 is an orally administered tubulin polymerization inhibitor that binds to a novel site on heterodimeric tubulin, and to a novel conformation of the dimer. Compound 76 can inhibit Src signaling in tumors. Compound 76 has been evaluated in various brain tumor cell lines. […] When administered orally to mice at a dose of 10 mg/kg, the ratio of drug levels in the brain compared to plasma levels was 0.76, indicating excellent BBB penetration as in Example 1.
Compound 76 was evaluated in various human and mouse brain tumor cells derived from glioblastoma multiforme, astrocytoma and medulloblastoma. […] When administered to mice Compound 76 penetrated the brain by 76%, thereby successfully addressing the first major challenge in brain cancer drug discovery. Drugs which are used to treat brain tumors often penetrate only 20% or less.

SK-N-MC = assay: brain tumor cell line growth inhibition, SK-N-MC; type: cell-based; settings: Homo sapiens, neuroepithelioma
Description: as §1

U87 = assay: brain tumor cell line growth inhibition, U87; type: cell-based; settings: Homo sapiens, U-87 MG; U87, glioblastoma; astrocytoma
Description: as §1

survivin = assay: additional molecular studies, survivin
[3] = plasma and brain exposure after single oral dose; type: in vivo, Male CD-1 Mice; settings: for Brain Concentrations, Group A, B, C / Plasma Concentrations, Group A, B, C / concentration at 0 h: 0 hr; for Kp: brain and plasma, read-out: AUClast Brain/AUClast Plasma Ratio
Description: […] The concentration of Compound 76 was measured in plasma and in brain tissue homogenates.
Plasma concentrations were measured in mice after oral administration. All doses were formulated in purified water. Four groups of male CD-1 mice were dosed after an overnight fast and fed 4 hours post-dose. Dosing was as follows:
Protein was precipitated with 0.25 mL acetonitrile for plasma, 0.25 mL for brain. After centrifugation, supernatant was directly injected into an LC/MS system. The limit of quantitation was 1 ng/mL using a 50 μL aliquot for plasma and a […] aliquot for brain. The standard curve was 1 to 1,000 ng/mL for both plasma and brain.
HPLC conditions were as follows:
• HPLC System: Shimadzu SCL-10 System • Analytical Column: Aquasil C18 5 μm 100×2 mm column. • Column Temperature: Ambient temperature • Autosampler Temperature: Ambient temperature • Mobile Phase • A) 10 mM Ammonium formate in water (pH 4). • B) Acetonitrile. • Flow Rate: 0.6 mL/min • Injection Volume: 2 μL

GL261 glioma [4] = assay: GL261 intracerebral tumors in SCID mice; type: in vivo, B6.CB17-Prkdc^scid/SzJ mice
Text: FIGS. 4A-C are a series of graphs showing the survival of C57BL6 mice with intracerebral GL261 glioma implants. Mice received intracerebral implants of 1×10^5 GL261 cells by stereotactic injection at 2 mm lateral, 1 mm anterior to bregma at 3 mm depth. After 4 days mice began indicated regimen of oral Compound 76. […] Compound 76 extended median survival from 21 to 29 days (range). n=10. […] Compound 76 extended median survival >100 days (range), with up to 60% of drug treated mice experiencing complete tumor regression, n=10. Long term survivors were confirmed tumor free by high field MRI in FIG. 6. […] See high field MRI in FIG. 6
(§2) Compound 76 was also evaluated in the orthotropic GL261 glioma model in immune-competent, syngeneic C57BL/6 mice. Mice implanted intracerebrally with 1×10^5 GL261 cells treated with vehicle alone (saline) have a median survival time (MeST) of 21 days (range 18-28). Mice treated by oral Compound 76 (30 mg/kg, b.i.d.) have a MeST of 30.5 days ranging 23-32 days. In contrast, when Compound 76 is given orally at (30 mg/kg, s.i.d.) the MeST increases to over 120 days, with more than 60% of the treatment group still alive 12 months later (p<0.0001). […] Further experiments were performed using a SCID version of C57BL/6 mice (B6.CB17-Prkdc^scid/SzJ), a mouse model of B6 background, but is immune-compromised.
as §2, with “was” for “was also”

[5] = PO 10 mg/kg (Group 3), single values
[6] = PO 50 mg/kg (Group 4), single values
[7] = male, CD-1, mouse, brain, po, 10 mg/kg, PO 10 mg/kg (Group 3), BLQ = 0, read-out: Brain Concentrations, Mean
[8] = male, CD-1, mouse, brain, po, 50 mg/kg, PO 50 mg/kg (Group 4), read-out: Brain Concentrations, Mean
[9] = male, CD-1, mouse, plasma, po, 10 mg/kg, PO 10 mg/kg (Group 3), read-out: Plasma Concentrations, Mean
[10] = male, CD-1, mouse, plasma, po, 50 mg/kg, PO 50 mg/kg (Group 4), read-out: Plasma Concentrations, Mean
[11] = male, CD-1, mouse, po, Brain, single dose of 50 mg/kg (Group 4)
[12] = male, CD-1, mouse, po, Plasma, single dose of 50 mg/kg (Group 4)
[13] = male, CD-1, mouse, Brain, single oral dose of 10 mg/kg
[14] = male, CD-1, mouse, Plasma, single oral dose of 10 mg/kg

In the case of `O=C(Cc1ccc(-c2ccc(N3CCOCC3)cc2)cn1)NCc1cccc(F)c1` [Compound 76], the “second GL261 tumor challenge in long term survivors” value (GL261 glioma [1]) is reported as “rejected the second GL261 tumor challenge; also recorded: rejected a second GL261 tumor implant challenge”, the IC50 (LN-18) is reported as 2.9 nM and the GI50 [2] is reported as < 55 nM. The IC50 (SK-N-MC) was 0.13 nM, the IC50 (U87) was 9.7 nM and the “effect on intracellular survivin” value (survivin) was “increased expression and altered the localization of intracellular survivin”. The AUClast ([3]; Brain, single dose of 50 mg/kg (Group 4)) was 3338 ng·h/g, the AUClast ([3]; Brain, single oral dose of 10 mg/kg) was 656 ng·h/g and the “Brain Concentrations, Group A, B, C” value [3, 5] was “BLQ (Below Limit of Quantitation (1 ng/mL))”. For the same compound, the “Plasma Concentrations, Group A, B, C” value [3, 5] was “BLQ (Below Limit of Quantitation (1 ng/mL))”, the “Brain Concentrations, Group A, B, C” value [3, 6] was “BLQ (Below Limit of Quantitation (1 ng/mL))” and the “Plasma Concentrations, Group A, B, C” value [3, 6] was “BLQ (Below Limit of Quantitation (1 ng/mL))”. It also gave a Kp ([3]; male, CD-1, mouse, oral 10 mg/kg) of 0.76, a Kp ([3]; male, CD-1, mouse, oral 50 mg/kg) of 0.61 and a concentration at 0 h [3, 7] of 0 ng/g. For the same compound, the concentration at 0.5 h ([3]; male, CD-1, mouse, brain, po, 10 mg/kg, PO 10 mg/kg (Group 3), 0.5 hr, read-out: Brain Concentrations, Mean) was 99.8 ng/g, the concentration at 1 h ([3]; male, CD-1, mouse, brain, po, 10 mg/kg, PO 10 mg/kg (Group 3), 1 hr, read-out: Brain Concentrations, Mean) was 279 ng/g and the concentration at 1 h ([3]; male, CD-1, mouse, brain, po, 10 mg/kg, PO 10 mg/kg (Group 3), 1 hr, single values, read-out: Brain Concentrations, Group A, B, C) was 228 ng/g. It also gave a concentration at 2 h ([3]; male, CD-1, mouse, brain, po, 10 mg/kg, PO 10 mg/kg (Group 3), read-out: Brain Concentrations, Mean) of 175 ng/g, a concentration at 5 h [3, 7] of 31.8 ng/g and a concentration at 5 h ([3]; male, CD-1, mouse, brain, po, 10 mg/kg, PO 10 mg/kg (Group 3), single values, read-out: Brain Concentrations, Group A, B, C) of 47.5 ng/g. The concentration at 0 h ([3]; male, CD-1, mouse, brain, po, 50 mg/kg, PO 50 mg/kg (Group 4), BLQ = 0, read-out: Brain Concentrations, Mean) was 0 ng/g, the concentration at 0.5 hr ([3]; male, CD-1, mouse, brain, po, 50 mg/kg, PO 50 mg/kg (Group 4), 0.5 hr, read-out: Brain Concentrations, Mean) was 1380 ng/g and the concentration at 1 hr ([3]; male, CD-1, mouse, brain, po, 50 mg/kg, PO 50 mg/kg (Group 4), 1 hr, read-out: Brain Concentrations, Mean) was 1100 ng/g. The concentration at 2 h [3, 8] was 758 ng/g, the concentration at 5 h [3, 8] was 207 ng/g and the concentration at 0 h ([3]; male, CD-1, mouse, plasma, po, 10 mg/kg, PO 10 mg/kg (Group 3), BLQ = 0, read-out: Plasma Concentrations, Mean) was 0 ng/mL. For the same compound, the concentration at 0.5 h ([3]; male, CD-1, mouse, plasma, po, 10 mg/kg, PO 10 mg/kg (Group 3), 0.5 hr, read-out: Plasma Concentrations, Mean) was 148 ng/mL, the concentration at 1 h ([3]; male, CD-1, mouse, plasma, po, 10 mg/kg, PO 10 mg/kg (Group 3), 1 hr, read-out: Plasma Concentrations, Mean) was 426 ng/mL and the concentration at 2 h [3, 9] was 205 ng/mL. It also gave a concentration at 5 h [3, 9] of 40 ng/mL, a concentration at 0 h ([3]; male, CD-1, mouse, plasma, po, 50 mg/kg, PO 50 mg/kg (Group 4), BLQ = 0, read-out: Plasma Concentrations, Mean) of 0 ng/mL and a concentration at 0.5 h ([3]; male, CD-1, mouse, plasma, po, 50 mg/kg, PO 50 mg/kg (Group 4), 0.5 hr, read-out: Plasma Concentrations, Mean) of 1800 ng/mL. For the same compound, the concentration at 0.5 h ([3]; male, CD-1, mouse, plasma, po, 50 mg/kg, PO 50 mg/kg (Group 4), 0.5 hr, single values, read-out: Plasma Concentrations, Group A, B, C) was 1490 ng/mL, the concentration at 1 h ([3]; male, CD-1, mouse, plasma, po, 50 mg/kg, PO 50 mg/kg (Group 4), 1 hr, read-out: Plasma Concentrations, Mean) was 2140 ng/mL and the concentration at 2 h [3, 10] was 1300 ng/mL. It also gave a concentration at 5 h [3, 10] of 230 ng/mL, a Cmax [3, 11] of 1380 ng/g and a Tmax [3, 11] of 0.5 h. It also gave an AUC(0-t) [3, 12] of 5440 ng·h/mL, a Cmax [3, 12] of 2140 ng/mL and a Tmax [3, 12] of 1 h. It also gave a Cmax [3, 13] of 279 ng/g, a Tmax [3, 13] of 1 h and an AUC(0-t) [3, 14] of 863 ng·h/mL. For the same compound, the Cmax [3, 14] was 426 ng/mL, the Tmax [3, 14] was 1 h and the “brain penetration from plasma” value ([3]; single oral dose of 10 mg/kg) was 76%. For the same compound, the “median survival time (MeST), range” value (GL261 glioma [4]) was 29 to 75 days, the “tumor reoccurrence by MRI” value (GL261 glioma [4]; after drug was discontinued) was “tumor reoccurrence; also recorded: all proceeded to develop lethal GL261 gliomas” and the long term survivors (GL261 glioma [4]; oral 30 mg/kg once daily) was “no long term survivors”. For the same compound, the “median survival time (MeST)” value (GL261 glioma [4]; oral 30 mg/kg once daily, 30 mg/kg) was 29 days and 40 days.
